The nature of the assay: Adsorption on stent in plasma, fluorescence microscopy. The assay is classed as binding. Particulars: stent immersed in human plasma (37° C., 30 minutes), then 0.5 mM solution. On the procedure:
Next, in order to analyze the binding ability of the peptide of the present invention and the 4-branched peptide complex to a stent existing in plasma, whether or not the peptide of the present invention also binds to a stent that has been allowed to come into contact with plasma was examined.
That is, a stent was immersed in human plasma (37° C., 30 minutes), and was then removed from the plasma. The stent was then immersed in each peptide solution (0.5 mM) and a 4-branched peptide complex solution (0.5 mM) (37° C., 30 minutes). Thereafter, the stent was sufficiently rinsed with PBS, and was then observed under an upright fluorescence microscope.

On to “SEQ ID NO: 9: control peptide that does not bind to a Co—Cr stent; sequence not printed in the text (MKAHHSQLYPRH)”, for which the “binding to the surface of a stent in human plasma (fluorescence)” value was “does not bind to a Co—Cr stent”.

(Values after patent publication US20220378948A1, “METAL-BINDING PEPTIDE, AND USE THEREOF” (The Jikei University, priority 2019, published 2022).)
